This experiment deals with human PDE10A2 (Homo sapiens (Human), UniProt Q9Y233). Description: PDE10 fluorescence polarization (IMAP FP) inhibition assay. It is filed as biochemical. The conditions noted are these: apparent inhibition constant, FAM-labeled cAMP substrate 50 nM, room temperature. Put shortly: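 Cytoplasmic lysate of AD293 cells transiently expressing human PDE10A2, enzyme preincubated 60 min at room temperature with compounds (1% DMSO), then 50 nM FAM-cAMP added for 60 min. Buffer 10 mM Tris HCl pH 7.2, 10 mM MgCl2, 1 mM DTT; IMAP binding reagent stop, FP read after ≥1 h.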
human PDE10A2, sequence (Q9Y233 267-1055): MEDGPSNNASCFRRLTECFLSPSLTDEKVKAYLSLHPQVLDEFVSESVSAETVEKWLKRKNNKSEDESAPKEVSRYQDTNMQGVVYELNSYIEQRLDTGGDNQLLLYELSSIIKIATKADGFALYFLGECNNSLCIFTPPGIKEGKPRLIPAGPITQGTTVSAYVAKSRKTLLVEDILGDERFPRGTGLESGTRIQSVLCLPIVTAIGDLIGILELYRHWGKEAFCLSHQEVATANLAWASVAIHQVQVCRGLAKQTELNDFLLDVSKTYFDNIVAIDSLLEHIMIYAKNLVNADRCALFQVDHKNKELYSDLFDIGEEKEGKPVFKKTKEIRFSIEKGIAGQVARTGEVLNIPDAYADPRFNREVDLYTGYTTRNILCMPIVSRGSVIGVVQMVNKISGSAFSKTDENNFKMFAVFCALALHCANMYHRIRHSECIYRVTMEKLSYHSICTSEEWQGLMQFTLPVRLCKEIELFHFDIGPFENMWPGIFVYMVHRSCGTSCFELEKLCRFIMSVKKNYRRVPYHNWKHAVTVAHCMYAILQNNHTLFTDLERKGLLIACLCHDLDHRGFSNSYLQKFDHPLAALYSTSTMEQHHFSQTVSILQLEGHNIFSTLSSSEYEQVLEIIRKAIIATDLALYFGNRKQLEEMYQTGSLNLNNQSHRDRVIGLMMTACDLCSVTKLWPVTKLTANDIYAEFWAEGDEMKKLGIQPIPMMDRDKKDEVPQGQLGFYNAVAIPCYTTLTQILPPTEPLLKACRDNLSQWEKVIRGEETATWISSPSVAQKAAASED
A general note: Polarisation of emitted light reports the rotation of a fluorescent probe.

On to `Cc1nc(N2CC(c3nc4ccccc4n3C)C2)cc(-n2ccc(C3CC3)n2)n1` [Example 13, 2-(1-(6-(3-cyclopropyl-1H-pyrazol-1-yl)-2-methylpyrimidin-4-yl)azetidin-3-yl)-1-methyl-1H-benzo[d]imidazole], for which the Ki worked out at 0.74 nM.

Regarding `Cc1nc(N2CC(c3nc4ccccc4n3C)C2)cc(-n2nc(C)nc2C2CC(=O)N(C)C2)n1` (stereo not shown) [Example 47, 1-methyl-4-(3-methyl-1-(2-methyl-6-(3-(1-methyl-1H-benzo[d]imidazol-2-yl)azetidin-1-yl)pyrimidin-4-yl)-1H-1,2,4-triazol-5-yl)pyrrolidin-2-one], the Ki is 3.9 nM.

Regarding `COCCc1nc(C)nn1-c1cc(N2CC(c3nc4ccccc4n3C)C2)nc(C)n1` [Example 42, 2-(1-(6-(5-(2-methoxyethyl)-3-methyl-1H-1,2,4-triazol-1-yl)-2-methylpyrimidin-4-yl)azetidin-3-yl)-1-methyl-1H-benzo[d]imidazole], the Ki worked out at 1.9 nM. Take `Cc1nc(C)n(-c2cc(N3CC(c4nc5ccccc5n4C)C3)nc(C3CC3)n2)n1` [Example 61, 2-{1-[2-cyclopropyl-6-(3,5-dimethyl-1H-1,2,4-triazol-1-yl)pyrimidin-4-yl]azetidin-3-yl}-1-methyl-1H-benzimidazole]: the Ki was 0.46 nM. For `Cc1nc(C)n(-c2cc(N3CC(c4nc5ccccc5n4C)C3)nc(OC(C)C)n2)n1` [Example 70, 2-{1-[6-(3,5-dimethyl-1H-1,2,4-triazol-1-yl)-2-isopropoxypyimidin-4-yl]azetidin-3-yl}-1-methyl-1H-benzimidazole], the Ki turned out to be 0.38 nM. In the case of `Cc1cc(C)n(-c2cc(N3CC(c4nc5ccccc5n4C)C3)nc(C)n2)n1` [Example 7, 2-(1-(6-(3,5-dimethyl-1H-pyrazol-1-yl)-2-methylpyrimidin-4-yl)azetidin-3-yl)-1-methyl-1H-benzo[d]imidazole] it was 8.6 nM. Regarding `Cc1nc(C)n(-c2cc(N3CC(c4nc5ccccc5n4C)C3)nc(N3CCCC3)n2)n1` [Example 78, 2-{1-[6-(3,5-dimethyl-1H-1,2,4-triazol-1-yl)-2-(pyrrolidin-1-yl)pyrimidin-4-yl]azetidin-3-yl}-1-methyl-1H-benzimidazole], the Ki was 0.29 nM. In the case of `COc1nc(C)ccc1-c1cc(N2CC(c3nc4ccccc4n3C)C2)nc(C)n1` [Example 84, 2-(1-(6-(2-methoxy-6-methylpyridin-3-yl)-2-methylpyrimidin-4-yl)azetidin-3-yl)-1-methyl-1H-benzo[d]imidazole] it was 27 nM; in that of `Cc1nc(-c2cccc(C(F)(F)F)n2)cc(N2CC(c3nc4ccccc4n3C)C2)n1` [Example 87, 1-methyl-2-(1-(2-methyl-6-(6-(trifluoromethyl)pyridin-2-yl)pyrimidin-4-yl)azetidin-3-yl)-1H-benzo[d]imidazole], 1.3 nM.

On to `Cc1nc(N2CC(c3nc4ccccc4n3C)C2)cc(-n2nc(C)nc2C)n1` [Example 1, 2-(1-(6-(3,5-dimethyl-1H-1,2,4-triazol-1-yl)-2-methylpyrimidin-4-yl)azetidin-3-yl)-1-methyl-1H-benzo[d]imidazole], for which the Ki was 2.1 nM. In the case of `COCc1nc(C)nn1-c1cc(N2CC(c3nc4ccccc4n3C)C2)nc(C(F)(F)F)n1` [Example 66, 2-(1-(6-(5-(methoxymethyl)-3-methyl-1H-1,2,4-triazol-1-yl)-2-(trifluoromethyl)pyrimidin-4-yl)azetidin-3-yl)-1-methyl-1H-benzo[d]imidazole] it was 0.94 nM; in that of `Cc1nc(N2CC(c3nc4ccccc4n3CC#N)C2)cc(-n2nc(C)nc2C)n1` [Example 115, 2-(2-(1-(6-(3,5-dimethyl-1H-1,2,4-triazol-1-yl)-2-methylpyrimidin-4-yl)azetidin-3-yl)-1H-benzo[d]imidazol-1-yl)acetonitrile], 14 nM. As for `COC(=O)CCc1nc(C)nn1-c1cc(N2CC(c3nc4ccccc4n3C)C2)nc(C)n1` [Example 43, methyl 3-(3-methyl-1-(2-methyl-6-(3-(1-methyl-1H-benzo[d]imidazol-2-yl)azetidin-1-yl)pyrimidin-4-yl)-1H-1,2,4-triazol-5-yl)propanoate], the figure is 0.49 nM; as for `CC(=O)Nc1ncccc1-c1cc(N2CC(c3nc4ccccc4n3C)C2)nc(C)n1` [Example 83, N-(3-(2-methyl-6-(3-(1-methyl-1H-benzo[d]imidazol-2-yl)azetidin-1-yl)pyrimidin-4-yl)pyridin-2-yl)acetamide], 75 nM. As for `Cc1ccc(-c2cc(N3CC(c4nc5ccccc5n4C)C3)nc(C)n2)nc1` [Example 94, 1-methyl-2-(1-(2-methyl-6-(5-methylpyridin-2-yl)pyrimidin-4-yl)azetidin-3-yl)-1H-benzo[d]imidazole], the figure is 1 nM; as for `COc1ccccc1-c1cc(N2CC(c3nc4ccccc4n3C)C2)nc(C)n1` [Example 89, 2-(1-(6-(2-methoxyphenyl)-2-methylpyrimidin-4-yl)azetidin-3-yl)-1-methyl-1H-benzo[d]imidazole], 63 nM. With `Cc1cnn(-c2cc(N3CC(c4nc5ccccc5n4C)C3)nc(C(F)(F)F)n2)c1` [Example 5, 1-methyl-2-(1-(6-(4-methyl-1H-pyrazol-1-yl)-2-(trifluoromethyl)pyrimidin-4-yl)azetidin-3-yl)-1H-benzo[d]imidazole], the Ki is 1.2 nM.

In the case of `Cc1nc(N2CC(c3nc4ccccc4n3C)C2)cc(-n2nc(C(F)(F)F)nc2C)n1` [Example 21, 1-methyl-2-(1-(2-methyl-6-(5-methyl-3-(trifluoromethyl)-1H-1,2,4-triazol-1-yl)pyrimidin-4-yl)azetidin-3-yl)-1H-benzo[d]imidazole], the Ki stood at 7 nM. With `Cc1cnc(-c2nc(C)nn2-c2cc(N3CC(c4nc5ccccc5n4C)C3)nc(C)n2)cn1` [Example 53, 1-methyl-2-(1-(2-methyl-6-(3-methyl-5-(5-methylpyrazin-2-yl)-1H-1,2,4-triazol-1-yl)pyrimidin-4-yl)azetidin-3-yl)-1H-benzo[d]imidazole], the Ki is 26 nM. As to `Cc1nc(N2CC(c3nc4ccccc4n3C)C2)cc(-n2nc(C)nc2C[C@@H](C)O)n1` [Example 41, (R)-1-(3-methyl-1-(2-methyl-6-(3-(1-methyl-1H-benzo[d]imidazol-2-yl)azetidin-1-yl)pyrimidin-4-yl)-1H-1,2,4-triazol-5-yl)propan-2-ol], the Ki came to 1 nM. On to `Cc1nc(-c2cccnc2C)cc(N2CC(c3nc4ccccc4n3C)C2)n1` [Example 80, 1-Methyl-2-(1-(2-methyl-6-(2-methylpyridin-3-yl)pyrimidin-4-yl)azetidin-3-yl)-1H-benzo[d]imidazole], for which the Ki is above 100 nM. For `Cc1nc(N2CC(c3nc4ccccc4n3C)C2)cc(-n2cc(CO)cn2)n1` [Example 19, (1-(2-methyl-6-(3-(1-methyl-1H-benzo[d]imidazol-2-yl)azetidin-1-yl)pyrimidin 4-yl)-1H-pyrazol-4-yl)methanol], the Ki was found to be 8.3 nM. As for `CCc1nc(C)nn1-c1cc(N2CC(c3nc4ccccc4n3C)C2)nc(C(F)(F)F)n1` [Example 67, 2-(1-(6-(5-ethyl-3-methyl-1H-1,2,4-triazol-1-yl)-2-(trifluoromethyl)pyrimidin-4-yl)azetidin-3-yl)-1-methyl-1H-benzo[d]imidazole], the figure is 0.28 nM; as for `Cc1nc(C)n(-c2cc(N3CC(c4nc5ccccc5n4C)C3)nc(OCc3ccon3)n2)n1` [Example 74, 3-(((4-(3,5-dimethyl-1H-1,2,4-triazol-1-yl)-6-(3-(1-methyl-1H-benzo[d]imidazol-2-yl)azetidin-1-yl)pyrimidin-2-yl)oxy)methyl)isoxazole], 0.49 nM.

As for `Cc1cn(-c2cc(N3CC(c4nc5ccccc5n4C)C3)nc(C3CC3)n2)nn1` [Example 32, 2-(1-(2-cyclopropyl-6-(4-methyl-1H-1,2,3-triazol-1-yl)pyrimidin-4-yl)azetidin-3-yl)-1-methyl-1H-benzo[d]imidazole], the Ki is 1.1 nM. With `Cc1nc(N2CC(c3nc4ccccc4n3CCC#N)C2)cc(-n2nc(C)nc2C)n1` [Example 119, 3-(2-(1-(6-(3,5-dimethyl-1H-1,2,4-triazol-1-yl)-2-methylpyrimidin-4-yl)azetidin-3-yl)-1H-benzo[d]imidazol-1-yl)propanenitrile], the Ki stood at 5 nM. As for `Cc1nc(N2CC(c3nc4ccccc4n3C)C2)cc(-n2nc(C)nc2C[C@H](C)O)n1` [Example 40, (S)-1-(3-methyl-1-(2-methyl-6-(3-(1-methyl-1H-benzo[d]imidazol-2-yl)azetidin-1-yl)pyrimidin-4-yl)-1H-1,2,4-triazol-5-yl)propan-2-ol], the figure is 2 nM. In the case of `Cc1nc(N2CC(c3nc4ccccc4n3C)C2)cc(-n2cc(C)c(C)n2)n1` [Example 8, 2-(1-(6-(3,4-dimethyl-1H-pyrazol-1-yl)-2-methylpyrimidin-4-yl)azetidin-3-yl)-1-methyl-1H-benzo[d]imidazole] it was 0.63 nM; in that of `Cc1nc(N2CC(c3nc4ccccc4n3CCCC#N)C2)cc(-n2nc(C)nc2C)n1` [Example 121, 4-(2-(1-(6-(3,5-dimethyl-1H-1,2,4-triazol-1-yl)-2-methylpyrimidin-4-yl)azetidin-3-yl)-1H-benzo[d]imidazol-1-yl)butanenitrile], 9.5 nM; in that of `Cc1nc(N2CC(c3nc4ccc(F)cc4[nH]3)C2)cc(-n2nc(C)nc2C)n1` [Example 109, 2-(1-(6-(3,5-dimethyl-1H-1,2,4-triazol-1-yl)-2-methylpyrimidin-4-yl)azetidin-3-yl)-6-fluoro-1H-benzo[d]imidazole], 8 nM. As for `Cc1ccc(-c2cc(N3CC(c4nc5ccccc5n4C)C3)nc(C)n2)c(F)n1` [Example 85, 2-(1-(6-(2-fluoro-6-methylpyridin-3-yl)-2-methylpyrimidin-4-yl)azetidin-3-yl)-1-methyl-1H-benzo[d]imidazole], the figure is 8 nM.
